Measured values published in ChEMBL document CHEMBL1151525, “Thromboxane receptor antagonism combined with thromboxane synthase inhibition. 7. pyridinylalkyl-substituted arylsulfonylamino arylalkanoic acids” (Bioorg Med Chem Lett, 1992).

Columns and labels:
Thromboxane-A synthase = target: T1, Thromboxane-A synthase (Homo sapiens, UniProt P24557); experiment: Inhibitory concentration against thromboxane synthase enzyme from human microsomal platelet preparation
T1 sequence (P24557 whole entry): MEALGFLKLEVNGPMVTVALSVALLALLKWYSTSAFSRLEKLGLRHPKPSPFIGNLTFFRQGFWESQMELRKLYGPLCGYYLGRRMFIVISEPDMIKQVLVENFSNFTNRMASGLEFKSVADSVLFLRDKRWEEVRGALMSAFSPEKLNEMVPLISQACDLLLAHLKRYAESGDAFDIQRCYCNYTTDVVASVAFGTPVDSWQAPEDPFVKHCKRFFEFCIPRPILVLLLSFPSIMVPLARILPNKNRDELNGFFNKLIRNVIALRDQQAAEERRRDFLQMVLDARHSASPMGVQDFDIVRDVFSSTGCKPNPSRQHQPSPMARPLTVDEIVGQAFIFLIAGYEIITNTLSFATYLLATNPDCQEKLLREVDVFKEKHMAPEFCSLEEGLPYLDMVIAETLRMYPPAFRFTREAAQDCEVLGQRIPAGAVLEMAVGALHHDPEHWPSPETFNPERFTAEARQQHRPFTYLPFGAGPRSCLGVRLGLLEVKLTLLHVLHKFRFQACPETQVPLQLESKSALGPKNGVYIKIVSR

Homo sapiens [1] = organism: Homo sapiens; experiment: Inhibitory concentration against U 46619 induced aggregation of human washed platelets(WP); assay type: functional
Homo sapiens [2] = organism: Homo sapiens; experiment: Inhibitory concentration against U 46619 induced aggregation of human platelet rich plasma(PRP); assay type: functional
Cavia porcellus = experiment: Ratio of EC50 for drug treated animals over that of control was determined for U-46,619 induced ex-vivo platelet aggregation 1 hr post dosing of 10 mg/kg orally; assay type: functional; settings: route oral

SMILES	IC50 (Thromboxane-A synthase)	IC50 (Homo sapiens [1])	IC50 (Homo sapiens [2])	Concentration ratio (Cavia porcellus)
O=C(O)CCc1ccc(CCCNS(=O)(=O)c2ccc(Cl)cc2)cc1CCc1cccnc1	26 nM	230 nM		
O=C(O)Cc1cc(CCCNS(=O)(=O)c2ccc(Cl)cc2)cc(CCc2cccnc2)c1	7 nM	1130 nM	10700 nM	
O=C(O)CCc1cc(CCNS(=O)(=O)c2ccc(Cl)cc2)ccc1CCc1cccnc1	15 nM	15 nM	300 nM	52
O=C(O)CCc1ccc(CNS(=O)(=O)c2ccc(Cl)cc2)c(CCc2cccnc2)c1	43 nM	380 nM		
COC(=O)CCc1cc(CCNS(=O)(=O)c2ccc(Cl)cc2)cc(CCc2cccnc2)c1	9 nM	3 nM	170 nM	>100
